Series [1] has as its system wild type VSV-G pseudotyped HIV-1 vector. In words: microbe, parasite or virus in culture. Conditions: Human immunodeficiency virus 1, HEK-293T; 293T cells, average ± SD of two independent experiments in duplicate; read-out: Antiviral EC50 wt. The class given is cell-based.
For series [2], the system named is Y188L RT mutant VSV-G pseudotyped HIV-1 vector. The class given is cell-based. Conditions: read-out: Antiviral EC50 Y188L.
The test system of series [3] is Y181C RT mutant VSV-G pseudotyped HIV-1 vector. In kind it is cell-based. As to conditions: read-out: Antiviral EC50 Y181C.
The test system of series [4] is V106A RT mutant VSV-G pseudotyped HIV-1 vector. The class given is cell-based. Conditions: read-out: Antiviral EC50 V106A.
The test system of series [5] is K103N RT mutant VSV-G pseudotyped HIV-1 vector. The class given is cell-based. Conditions: read-out: Antiviral EC50 K103N.
Series [6] in a line: in vitro. As to conditions: human.
Series [7] relates to VSVg-pseudotyped HIV-1 vector (pNL4-3LucR+E-). In words: microbe, parasite or virus in culture. The class given is cell-based.
Series [8] has as its system pLai3Luc2 HIV-1 vector. In words: microbe, parasite or virus in culture. In kind it is cell-based.
The test system of series [9] is HIV-1 vector (NL4-3 Nef + IRES rluc). In words: microbe, parasite or virus in culture. The class given is cell-based.
The subject of series [10] is early and late HIV-1 reverse transcription products. In words: Real-time PCR quantitation of early and late viral DNA in infected 293T cells. In kind it is cell-based. As to conditions: 5 μM added 1 hr before infection, 24 hrs post infection. (In general: Real-time PCR tracks product formation cycle by cycle.)
The target in series [11] is T1, HIV-1 reverse transcriptase (RT) (Human immunodeficiency virus type 1 group M subtype B, UniProt P03366).
T1 construct: recombinant purified HIV-1 reverse transcriptase (RT) activity; purchased Ambion, Austin, TX
In words: biochemical.

Series [12] relates to VSVg-pseudotyped HIV-1 vector. The class given is cell-based.
Series [13] deals with PBMCs.
Method: PBMCs were activated in PBMC Growth Medium (RPMI 1640 with 15% FBS, Pen/Strep, 25 mM HEPES, 100 U/ml IL-2) supplemented with 5 μg/ml PHA-P. Two days after activation, the PBMC’s were maintained in the same medium (without PHA-P) for 3 more days. Aliquots of 2x10^4 PBMCs were then plated in 80 μl PBMC Growth Medium in each well of white 96 well plates (CoStar) and returned to the incubator overnight. […] Eight replicate samples were then set up, with 10 μl aliquots of the serially-diluted compounds added to the cells, and preincubated at 37°C for one hour prior to virus challenge. The cells were then challenged with 10 μl per well of the NL4-3 Nef+ IRES rluc virus vector bringing the total volume in each well to 100 μl final. The plates were incubated at 37°C for five days and then viral infection was monitored by adding 100 μl per well of Renilla-Glo Luciferase Reagent (Promega) and measuring the resultant luciferase activities using a Topcount-HTS (PerkinElmer). Cell toxicity was assessed on a duplicate plate of samples by adding 100 μl Cell-Titer Glo Reagent (Promega) and reading on a Topcount-HTS.

We go through 3 compounds from article PMC3560175 (Virology Journal, 2012).

As usually defined, the EC50 is the concentration that produces a half-maximal response. With `Cc1cn([C@H]2C[C@H](N=[N+]=[N-])[C@@H](CO)O2)c(=O)[nH]c1=O` [AZT, 3’-azido-3’-deoxythymidine], the EC50 amounted to 14 ± 3 nM in series [1]; 11 ± 5 nM in series [2]; 6 nM in series [3]; 15 ± 1 nM in series [4]; 14 ± 2 nM in [5]. Moreover, in series [6], the CC50 at 24 h was more than 50000 nM.
The term IC50 denotes the point on the concentration scale where inhibition reaches its midpoint. The low end stands for greater potency in that assay, the high end for weaker potency in that assay. As for `Clc1ccccc1-c1nc2ccccn2c1NC1CCCCC1` [F2], the “decrease of luciferase activity (library screen)” value in series [7] is reported as “more than 50%”. Further, the values for the selectivity index in series [7], in series [8] and in series [9] were 88.1, 29.5 and more than 11.6, respectively. Also, the EC50 in series [7] (Human immunodeficiency virus 1, HEK-293T, read-out: EC50 (luciferase-based infectivity)) was 387 ± 46 nM; in series [8] (Human immunodeficiency virus 1, CEM-GFP, 48 h), 862 ± 88 nM; in [9] (Human immunodeficiency virus 1, NL43, PBMC, 120 h), 865 ± 222 nM; in series [1], 165 ± 39 nM; in series [2], more than 20000 nM; in series [3], 1680 ± 271 nM. Further, the EC50 in series [4] came out at 1280 ± 357 nM; in series [5] it was 3230 ± 127 nM. Moreover, the “synthesis of early and late viral DNA products” value in series [10] is “blocked the synthesis of both early and late viral DNA products”. In [11], this compound gave an IC50 of 2550 ± 365 nM. Moreover, in series [12], the “combination effect with AZT (isobologram)” value was “synergy”. In addition, the “combination effect with NVP (isobologram)” value in [12] is recorded as “additivity”. The cell toxicity result in [13] is on record as “absence of cell toxicity”.
As for `Cc1ccnc2c1NC(=O)c1cccnc1N2C1CC1` [NVP, nevirapine], the EC50 in [1] is 19 ± 2 nM; in series [2], more than 20000 nM; in series [3], 2879 ± 6 nM; in series [4], 1260 ± 159 nM; in series [5], 841 ± 49 nM. Besides, in series [6], the CC50 was more than 50000 nM.
